In paper PMC7801313, “Effect of lurbinectedin on the QTc interval in patients with advanced solid tumors: an exposure–response analysis” (Cancer Chemotherapy and Pharmacology, 2020):

Columns and labels:
patients = conditions: cited from earlier work
[1] = system: patients with advanced solid tumors; assay: QT evaluation study, by time point ECG analysis; format: in vivo, human; conditions: before vs after prophylactic palonosetron 0.25 mg i.v., cycle 1 day 1
Description: This was a QT evaluation study (EudraCT No. 2015-000206-18; ClinicalTrials.gov: NCT02451007) performed at a subset of sites participating in a multicenter, open-label, exploratory, phase II basket clinical trial (EudraCT No: 2014-003773-42; ClinicaTrials.gov: NCT02454972) conducted in patients with selected advanced solid tumors. The schedule used in this QT evaluation study was that evaluated in the basket trial: lurbinectedin 3.2 mg/m^2 given as a 1-h i.v. infusion q3wk.
A screening ECG was collected between day -10 and day -2 before the first lurbinectedin infusion (day 1 of cycle 1) and transmitted to the central ECG laboratory to confirm the patient’s eligibility.
On day 1 of cycle 1, two baseline triplicate ECGs (three 10-s digital ECGs in close succession) were collected: one before administration of prophylactic medication or pre-dose 1, and the other after antiemetic prophylactic medication (palonosetron 0.25 mg i.v.) and before the start of the lurbinectedin infusion or pre-dose 2 (also on cycle 2).
In cycle 1 and cycle 2, the following triplicate ECGs were collected 5–10 min before their time-matched PK time points: 5 min before end of the lurbinectedin infusion (EOI), 30 min, 1, 3, 24, 72 (only on cycle 1), and 168 h after EOI.
A 12-lead automated digital ECG recorder [Mortara Instrument (Milwaukee, WI, USA) ELI-150 ECG 12-lead digital recorder] was provided by a third-party central ECG laboratory (eResearchTechnology, Inc., Philadelphia, PA, USA). Analysis and reporting of ECG data were performed by a limited number of skilled readers who were blinded to treatment time point. ECG review of a particular patient was performed by a single reader. Interval duration measurements were collected using computer-assisted caliper placements on three consecutive beats. A cardiologist then verified the interval durations and performed the morphology analysis, noting any T-U wave complex compatible with an effect on cardiac repolarization. The ECG analysis was conducted in Lead II or in Lead V5 if Lead II was not analyzable. If Lead V5 was not analyzable, then Lead V2 was used, and followed by the most appropriate lead if necessary. The mean of triplicate ECG measures at each time point for each patient was used for analyses.
Fridericia’s formula [6] is currently considered the most accurate method for correcting the effect of HR on QT interval [7], and was used as the main method for HR correction for QT (QTcF). Nevertheless, graphical inspection of QTcF and QT corrected by Bazett’s formula (QTcB) versus RR interval plots and statistical comparison of resulting squared linear regression slopes (R^2) was performed.
The primary endpoint was the change in QTc corrected by the Fridericia’s formula (ΔQTcF) between each scheduled post-baseline ECG time point and baseline at cycle 1. A patient was considered evaluable for the primary endpoint if he/she had baseline and one or more post-baseline ECG assessments.
Secondary endpoints were the ΔQTcF/lurbinectedin plasma concentration relationship, and change in other ECG parameters (i.e., HR, QRS, and PR).
The primary comparison was ΔQTcF at each ECG time point. A non-inferiority criterion of 20 ms was used to establish the absence of post-baseline QTc prolongation when compared to baseline. An analysis of variance model with mixed effects was fitted, with ΔQTc data as the dependent variable and ECG time point as the fixed effects, and patient as random effect.
Using the estimated least square means (LSM) and intra-patient standard deviation (Std) obtained from this model, a two-sided 90% confidence interval (CI) was calculated for each LSM ΔQTc. Non-inferiority was to be concluded if the upper bound (UB) of the one-sided 95% CI fell below 20 ms at each ECG time point.

Row | SMILES | heart rate change (patients; 3-h i.v. infusion, largest increases at 4 h after start of infusion) | cardiac risk profile (patients) | difference between mean pre-dose 1 and mean pre-dose 2 QTcF [1] [ms]
1 | COc1cc2c(cc1O)CCN[C@]21CS[C@@H]2c3c(OC(C)=O)c(C)c4c(c3[C@H](COC1=O)N1[C@@H]2[C@H]2c3c(cc(C)c(OC)c3O)C[C@@H]([C@@H]1O)N2C)OCO4 [trabectedin] | heart rate increased slightly | low cardiac risk profile | 
2 | O=C1c2cccc3c2[C@H](CCC3)CN1[C@@H]1CN2CCC1CC2 [prophylactic medication, palonosetron, reference compound] |  |  | 1.3
